ChEMBL document CHEMBL5723587, “Data for DCP probe BI-113823” (2024)
Calls of active or inactive are those of the source. No cut-off for these calls is given here.

Key:
B1 bradykinin receptor [1] = target: B1 bradykinin receptor (Oryctolagus cuniculus, UniProt P48748); assay: Radioligand binding assay (displacement of kallidin, rabbit BDKRB1 ) at 10 µM ( Non-specific binding is estimated in the presence of 10 µM Des-Arg9- (Leu8)-Bradykinin. Membranes are filtered and washed, the filters are then counted to determine [3H]Kallidin[des-Arg10, Leu9] specifically bound.); set-up: compound concentration 10 uM
Chain of B1 bradykinin receptor (Oryctolagus cuniculus, UniProt P48748) (P48748 whole entry): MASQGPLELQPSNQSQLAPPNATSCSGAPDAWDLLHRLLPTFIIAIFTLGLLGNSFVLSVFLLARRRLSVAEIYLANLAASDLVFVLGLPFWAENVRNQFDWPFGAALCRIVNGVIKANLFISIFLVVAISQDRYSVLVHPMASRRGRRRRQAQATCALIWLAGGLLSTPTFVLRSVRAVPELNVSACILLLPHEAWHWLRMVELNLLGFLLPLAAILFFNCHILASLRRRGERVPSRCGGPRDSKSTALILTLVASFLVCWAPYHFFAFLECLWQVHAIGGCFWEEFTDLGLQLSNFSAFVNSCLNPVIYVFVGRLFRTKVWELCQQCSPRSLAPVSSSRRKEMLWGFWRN

B1 bradykinin receptor [2] = target: T1, B1 bradykinin receptor (Homo sapiens, UniProt P46663); assay: Measurement of intracellular calcium in HEK-cells expressing hBDKRB1 at up to 1 µM ( The compound antagonizes the effects of the specific B1 agonist [Lys-des-Arg9 ]-Bradykinin (10 nM) in a concentration-dependent manner.); assay type: functional, cell-based; set-up: compound concentration < 1 uM
T1 sequence (P46663 whole entry): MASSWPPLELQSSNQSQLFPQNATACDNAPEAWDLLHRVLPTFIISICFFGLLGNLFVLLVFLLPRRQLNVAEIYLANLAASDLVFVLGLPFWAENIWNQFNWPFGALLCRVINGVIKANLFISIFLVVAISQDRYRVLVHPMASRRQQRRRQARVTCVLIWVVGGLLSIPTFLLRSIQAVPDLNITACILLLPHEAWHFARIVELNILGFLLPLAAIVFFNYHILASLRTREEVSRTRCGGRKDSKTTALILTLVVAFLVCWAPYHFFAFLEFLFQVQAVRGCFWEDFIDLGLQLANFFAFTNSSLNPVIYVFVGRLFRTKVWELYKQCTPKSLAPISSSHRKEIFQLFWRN

[3] = target: 5-hydroxytryptamine receptor 1A (Homo sapiens) (UniProt P08908); assay: Activity against 5HT1A/HU in the Eurofins SafetyScreen44 (BI) by Radioactive Assay; settings: Compound concentration 10.0 uM
[4] = target: 5-hydroxytryptamine receptor 3A (Homo sapiens) (UniProt P46098); assay: Activity against 5HT3/HU in the Eurofins SafetyScreen44 (BI) by Others; settings: Compound concentration 10.0 uM
[5] = target: Adenosine receptor A3 (Homo sapiens) (UniProt P0DMS8); assay: Activity against A3/H in the Eurofins SafetyScreen44 (BI); settings: Compound concentration 10.0 uM
Chain of Adenosine receptor A3 (Homo sapiens) (P0DMS8 whole entry): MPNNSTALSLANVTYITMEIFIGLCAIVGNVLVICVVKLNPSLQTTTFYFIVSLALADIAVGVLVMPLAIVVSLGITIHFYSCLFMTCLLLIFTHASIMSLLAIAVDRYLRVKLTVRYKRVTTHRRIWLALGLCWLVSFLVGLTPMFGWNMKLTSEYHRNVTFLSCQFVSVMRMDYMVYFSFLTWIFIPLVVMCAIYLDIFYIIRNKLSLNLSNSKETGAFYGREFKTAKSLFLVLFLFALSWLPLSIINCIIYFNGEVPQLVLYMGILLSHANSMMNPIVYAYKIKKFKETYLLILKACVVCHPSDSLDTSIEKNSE

[6] = target: Alpha-2A adrenergic receptor (Homo sapiens) (UniProt P08913); assay: Activity against ALPHA2A/H in the Eurofins SafetyScreen44 (BI) by Radioactive Assay; settings: Compound concentration 10.0 uM
[7] = target: B1 bradykinin receptor (Homo sapiens) (UniProt P46663); assay: Activity against B1/H in the Eurofins SafetyScreen44 (BI) by Radioactive Assay; settings: Compound concentration 10.0 uM
[8] = target: Beta-2 adrenergic receptor (Homo sapiens) (UniProt P07550); assay: Activity against BETA2/HU in the Eurofins SafetyScreen44 (BI) by Radioactive Assay; settings: Compound concentration 10.0 uM
Rattus norvegicus = organism: Rattus norvegicus; assay: Activity against CA+/DHPSI/RA in the Eurofins SafetyScreen44 (BI) by Radioactive Assay; settings: Compound concentration 10.0 uM
[9] = target: Cysteinyl leukotriene receptor 1 (Homo sapiens) (UniProt Q9Y271); assay: Activity against CYSLT1_HS in the Eurofins SafetyScreen44 (BI) by Radioactive Assay; settings: Compound concentration 10.0 uM
Chain of Cysteinyl leukotriene receptor 1 (Homo sapiens) (Q9Y271 whole entry): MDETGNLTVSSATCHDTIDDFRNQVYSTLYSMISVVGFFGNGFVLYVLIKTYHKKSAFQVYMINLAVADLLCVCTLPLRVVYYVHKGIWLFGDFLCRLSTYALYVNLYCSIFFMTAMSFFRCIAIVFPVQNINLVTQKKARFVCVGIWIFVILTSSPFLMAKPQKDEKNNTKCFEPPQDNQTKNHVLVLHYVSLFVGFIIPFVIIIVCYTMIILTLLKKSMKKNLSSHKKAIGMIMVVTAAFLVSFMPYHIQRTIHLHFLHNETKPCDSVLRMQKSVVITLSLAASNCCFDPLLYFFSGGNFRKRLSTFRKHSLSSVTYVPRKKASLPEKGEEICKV

[10] = target: Sodium-dependent dopamine transporter (Homo sapiens) (UniProt Q01959); assay: Inhibitor of DATRANS/H in the Eurofins SafetyScreen44 (BI) by Radioactive Assay; settings: Compound concentration 10.0 uM
[11] = target: Prostaglandin E2 receptor EP4 subtype (Homo sapiens) (UniProt P35408); assay: Activity against EP4/H in the Eurofins SafetyScreen44 (BI) by Radioactive Assay; settings: Compound concentration 10.0 uM
[12] = target: Estrogen receptor (Homo sapiens) (UniProt P03372); assay: Activity against ERALPHA/H in the Eurofins SafetyScreen44 (BI) by Radioactive Assay; settings: Compound concentration 10.0 uM
[13] = target: Gamma-aminobutyric acid receptor subunit alpha-1 (Rattus norvegicus) (UniProt P62813); assay: Activity against GABAA MUSCIMOL CENT in the Eurofins SafetyScreen44 (BI) by Scintillation counting; settings: Compound concentration 10.0 uM
Chain of Gamma-aminobutyric acid receptor subunit alpha-1 (Rattus norvegicus) (P62813 whole entry): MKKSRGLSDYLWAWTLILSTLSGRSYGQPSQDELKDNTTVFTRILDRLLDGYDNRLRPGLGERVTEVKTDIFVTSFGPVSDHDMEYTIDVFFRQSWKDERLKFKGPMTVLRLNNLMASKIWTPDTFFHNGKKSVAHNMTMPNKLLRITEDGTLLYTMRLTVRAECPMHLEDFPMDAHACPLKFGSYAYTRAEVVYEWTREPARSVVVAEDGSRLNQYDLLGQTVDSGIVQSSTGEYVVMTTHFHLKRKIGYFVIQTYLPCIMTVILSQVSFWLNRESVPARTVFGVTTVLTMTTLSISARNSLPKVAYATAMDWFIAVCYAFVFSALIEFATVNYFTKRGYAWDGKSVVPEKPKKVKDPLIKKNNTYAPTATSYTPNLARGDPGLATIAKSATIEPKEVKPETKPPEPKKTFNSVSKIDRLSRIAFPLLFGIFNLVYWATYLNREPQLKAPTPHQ

[14] = target: Gamma-aminobutyric acid receptor subunit alpha-1 (Rattus norvegicus) (UniProt P62813); assay: Activity against GABAACENTR in the Eurofins SafetyScreen44 (BI) by Radioactive Assay; settings: Compound concentration 10.0 uM
[15] = target: Sodium- and chloride-dependent GABA transporter 1 (Rattus norvegicus) (UniProt P23978); assay: Activity against GABATRANS/RA in the Eurofins SafetyScreen44 (BI) by Radioactive Assay; settings: Compound concentration 10.0 uM
[16] = target: Glucocorticoid receptor (Homo sapiens) (UniProt P04150); assay: Activity against GLUCOCORTICO in the Eurofins SafetyScreen44 (BI) by Radioactive Assay; settings: Compound concentration 10.0 uM
[17] = target: Histamine H1 receptor (Homo sapiens) (UniProt P35367); assay: Activity against H1/H in the Eurofins SafetyScreen44 (BI) by Radioactive Assay; settings: Compound concentration 10.0 uM
Chain of Histamine H1 receptor (Homo sapiens) (P35367 whole entry): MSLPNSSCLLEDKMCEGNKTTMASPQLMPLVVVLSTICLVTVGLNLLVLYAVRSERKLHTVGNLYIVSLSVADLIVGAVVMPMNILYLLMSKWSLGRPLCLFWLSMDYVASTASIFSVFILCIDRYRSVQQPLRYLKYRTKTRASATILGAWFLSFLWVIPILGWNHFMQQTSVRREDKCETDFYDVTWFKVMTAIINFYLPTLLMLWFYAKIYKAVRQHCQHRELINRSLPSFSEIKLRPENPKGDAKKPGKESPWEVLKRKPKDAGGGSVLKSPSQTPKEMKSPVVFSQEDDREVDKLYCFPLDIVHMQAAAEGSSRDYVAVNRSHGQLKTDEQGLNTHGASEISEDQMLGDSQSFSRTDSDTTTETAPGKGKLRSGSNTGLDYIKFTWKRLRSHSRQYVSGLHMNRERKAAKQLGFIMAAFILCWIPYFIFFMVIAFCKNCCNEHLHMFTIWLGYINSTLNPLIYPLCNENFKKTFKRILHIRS

[18] = target: Histamine H3 receptor (Homo sapiens) (UniProt Q9Y5N1); assay: Activity against H3/H in the Eurofins SafetyScreen44 (BI) by Radioactive Assay; settings: Compound concentration 10.0 uM
Chain of Histamine H3 receptor (Homo sapiens) (Q9Y5N1 whole entry): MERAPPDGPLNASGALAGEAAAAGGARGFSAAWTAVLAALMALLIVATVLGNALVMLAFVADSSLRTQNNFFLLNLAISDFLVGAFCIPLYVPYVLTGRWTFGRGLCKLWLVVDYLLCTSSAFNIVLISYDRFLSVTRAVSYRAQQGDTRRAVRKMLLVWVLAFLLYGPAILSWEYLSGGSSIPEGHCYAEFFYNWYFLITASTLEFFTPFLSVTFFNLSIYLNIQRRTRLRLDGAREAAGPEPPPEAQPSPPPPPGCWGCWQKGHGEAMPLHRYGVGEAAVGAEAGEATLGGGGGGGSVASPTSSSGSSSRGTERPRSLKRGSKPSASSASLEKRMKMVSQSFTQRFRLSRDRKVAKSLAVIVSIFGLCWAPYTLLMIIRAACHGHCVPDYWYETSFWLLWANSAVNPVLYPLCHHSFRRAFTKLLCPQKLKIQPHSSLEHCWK

hERG (KCNH2) = hERG (KCNH2) (Homo sapiens, UniProt Q12809); assay: Activity against K+/HERG in the Eurofins SafetyScreen44 (BI) by Radioactive Assay; settings: compound concentration 10 uM, read-out: % Ctrl
[19] = target: ATP-sensitive inward rectifier potassium channel 1 isoform X1 (Mesocricetus auratus) (UniProt A0A1U8CU73); assay: Activity against K+/KATP/HA in the Eurofins SafetyScreen44 (BI) by Radioactive Assay; settings: Cricetinae; Compound concentration 10.0 uM
[20] = target: Kappa-type opioid receptor (Homo sapiens) (UniProt P41145); assay: Activity against KAPPA/HU in the Eurofins SafetyScreen44 (BI) by Radioactive Assay; settings: Compound concentration 10.0 uM
[21] = target: Melatonin receptor type 1A (Homo sapiens) (UniProt P48039); assay: Activity against MT1/H in the Eurofins SafetyScreen44 (BI) by Radioactive Assay; settings: Compound concentration 10.0 uM
Chain of Melatonin receptor type 1A (Homo sapiens) (P48039 whole entry): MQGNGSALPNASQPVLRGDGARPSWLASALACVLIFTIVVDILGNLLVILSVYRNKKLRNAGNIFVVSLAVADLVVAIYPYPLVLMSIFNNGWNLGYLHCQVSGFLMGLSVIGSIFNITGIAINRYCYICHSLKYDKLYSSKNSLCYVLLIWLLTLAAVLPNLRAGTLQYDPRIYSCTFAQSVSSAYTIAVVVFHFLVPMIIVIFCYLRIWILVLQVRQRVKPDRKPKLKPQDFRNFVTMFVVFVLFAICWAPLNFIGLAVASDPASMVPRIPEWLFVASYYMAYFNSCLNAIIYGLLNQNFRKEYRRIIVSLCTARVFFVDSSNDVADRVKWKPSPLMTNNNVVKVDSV

[22] = target: Sodium-dependent noradrenaline transporter (Homo sapiens) (UniProt P23975); assay: Activity against NETRANS/H in the Eurofins SafetyScreen44 (BI) by Radioactive Assay; settings: Compound concentration 10.0 uM
Chain of Sodium-dependent noradrenaline transporter (Homo sapiens) (P23975 whole entry): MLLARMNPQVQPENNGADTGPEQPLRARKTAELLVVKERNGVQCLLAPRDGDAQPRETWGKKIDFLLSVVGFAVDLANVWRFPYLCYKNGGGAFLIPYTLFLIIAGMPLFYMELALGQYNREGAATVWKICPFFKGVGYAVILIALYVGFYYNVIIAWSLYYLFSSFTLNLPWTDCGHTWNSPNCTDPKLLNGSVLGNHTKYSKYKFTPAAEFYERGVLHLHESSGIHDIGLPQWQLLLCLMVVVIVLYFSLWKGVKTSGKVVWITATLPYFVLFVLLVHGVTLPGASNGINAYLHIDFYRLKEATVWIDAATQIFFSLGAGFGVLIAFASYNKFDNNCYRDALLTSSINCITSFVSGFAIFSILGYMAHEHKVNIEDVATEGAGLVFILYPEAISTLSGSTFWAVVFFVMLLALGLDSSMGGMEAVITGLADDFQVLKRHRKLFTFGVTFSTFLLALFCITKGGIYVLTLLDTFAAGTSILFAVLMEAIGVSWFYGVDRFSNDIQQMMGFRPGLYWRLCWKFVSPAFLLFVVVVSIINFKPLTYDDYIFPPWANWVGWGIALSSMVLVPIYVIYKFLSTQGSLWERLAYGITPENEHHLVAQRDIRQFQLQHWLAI

[23] = target: Glutamate receptor ionotropic, NMDA 2A (Rattus norvegicus) (UniProt Q00959); assay: Activity against NMDAPHSI/R in the Eurofins SafetyScreen44 (BI) by Radioactive Assay; settings: Compound concentration 10.0 uM
[24] = target: Protein kinase C alpha type (Mus musculus) (UniProt P20444); assay: Inhibitor of PHORBOLE/M in the Eurofins SafetyScreen44 (BI) by Radioactive Assay; settings: Compound concentration 10.0 uM
[25] = target: 3',5'-cyclic-AMP phosphodiesterase 4A (Rattus norvegicus) (UniProt P54748); assay: Activity against ROLIPRAM/R in the Eurofins SafetyScreen44 (BI) by Radioligand Binding; settings: Compound concentration 10.0 uM
[26] = target: Sigma non-opioid intracellular receptor 1 (Homo sapiens) (UniProt Q99720); assay: Activity against SIGMA1/HU in the Eurofins SafetyScreen44 (BI) by Radioactive Assay; settings: Compound concentration 10.0 uM
Chain of Sigma non-opioid intracellular receptor 1 (Homo sapiens) (Q99720 whole entry): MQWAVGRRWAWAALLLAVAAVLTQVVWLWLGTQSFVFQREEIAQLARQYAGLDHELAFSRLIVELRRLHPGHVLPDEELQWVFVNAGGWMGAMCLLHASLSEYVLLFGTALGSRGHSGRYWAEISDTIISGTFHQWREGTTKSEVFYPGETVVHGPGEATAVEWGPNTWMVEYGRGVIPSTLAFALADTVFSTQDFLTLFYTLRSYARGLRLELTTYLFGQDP

[27] = target: Sigma intracellular receptor 2 (Rattus norvegicus) (UniProt Q5U3Y7); assay: Activity against SIGMA2/R in the Eurofins SafetyScreen44 (BI) by Radioactive Assay; settings: Compound concentration 10.0 uM
Chain of Sigma intracellular receptor 2 (Rattus norvegicus) (Q5U3Y7 whole entry): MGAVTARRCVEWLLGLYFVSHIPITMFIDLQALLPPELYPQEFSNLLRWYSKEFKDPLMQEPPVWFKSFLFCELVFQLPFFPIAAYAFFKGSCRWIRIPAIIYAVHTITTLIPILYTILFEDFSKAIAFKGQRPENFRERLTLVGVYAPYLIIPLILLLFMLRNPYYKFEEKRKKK

[28] = target: Thyroid hormone receptor alpha (Rattus norvegicus) (UniProt P63059); assay: Activity against THYROID HORM in the Eurofins SafetyScreen44 (BI) by Radioactive Assay; settings: Homo sapiens; Compound concentration 10.0 uM
Chain of Thyroid hormone receptor alpha (Rattus norvegicus) (P63059 whole entry): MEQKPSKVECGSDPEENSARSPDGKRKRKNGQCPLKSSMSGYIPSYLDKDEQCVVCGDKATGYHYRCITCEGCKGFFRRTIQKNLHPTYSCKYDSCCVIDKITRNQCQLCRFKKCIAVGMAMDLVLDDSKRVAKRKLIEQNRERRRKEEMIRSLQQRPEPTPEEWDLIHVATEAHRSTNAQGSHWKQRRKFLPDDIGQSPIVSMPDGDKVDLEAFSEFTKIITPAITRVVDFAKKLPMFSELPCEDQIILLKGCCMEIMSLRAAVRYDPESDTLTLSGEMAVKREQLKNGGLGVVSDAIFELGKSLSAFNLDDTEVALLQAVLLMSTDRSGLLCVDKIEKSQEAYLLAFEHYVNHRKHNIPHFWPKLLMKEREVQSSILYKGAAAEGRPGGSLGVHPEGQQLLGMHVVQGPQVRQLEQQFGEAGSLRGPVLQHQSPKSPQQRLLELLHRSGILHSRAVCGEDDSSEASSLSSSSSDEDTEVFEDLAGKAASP

[29] = target: Neuropeptide Y receptor type 2 (Homo sapiens) (UniProt P49146); assay: Activity against Y2/HU in the Eurofins SafetyScreen44 (BI) by Radioactive Assay; settings: Compound concentration 10.0 uM
Chain of Neuropeptide Y receptor type 2 (Homo sapiens) (P49146 whole entry): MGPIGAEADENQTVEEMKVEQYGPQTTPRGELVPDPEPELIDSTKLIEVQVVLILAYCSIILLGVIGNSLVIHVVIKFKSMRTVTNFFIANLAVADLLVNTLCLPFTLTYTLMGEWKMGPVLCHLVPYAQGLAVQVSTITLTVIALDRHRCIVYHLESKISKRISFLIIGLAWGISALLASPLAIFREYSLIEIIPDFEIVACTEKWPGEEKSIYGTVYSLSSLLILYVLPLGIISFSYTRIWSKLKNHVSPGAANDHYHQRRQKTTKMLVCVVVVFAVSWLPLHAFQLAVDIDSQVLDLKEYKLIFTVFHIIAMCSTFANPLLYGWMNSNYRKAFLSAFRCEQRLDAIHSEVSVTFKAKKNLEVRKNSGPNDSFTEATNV

COc1cc(C)c(S(=O)(=O)N(C)CCOCC(=O)N(C)[C@H]2CCC[C@@H](N3CCN(C)CC3)C2)c(C)c1
Ki (B1 bradykinin receptor [1]): 15.3 nM (active) | IC50 (B1 bradykinin receptor [2]): 7 nM (active) | residual activity [3]: 99% | residual activity [4]: 91% | residual activity [5]: 101% | residual activity [6]: 85% | residual activity [7]: 22% | residual activity [8]: 103% | residual activity (Rattus norvegicus): 94% | residual activity [9]: 95% | residual activity [10]: 103% | residual activity [11]: 93% | residual activity [12]: 104% | residual activity [13]: 101% | residual activity [14]: 96% | residual activity [15]: 119% | residual activity [16]: 103% | residual activity [17]: 85% | residual activity [18]: 77% | activity at 10 µM (hERG (KCNH2)): 70% (not active) | residual activity [19]: 90% | residual activity [20]: 99% | residual activity [21]: 97% | residual activity [22]: 114% | residual activity [23]: 111% | residual activity [24]: 102% | residual activity [25]: 84% | residual activity [26]: 30% | residual activity [27]: 45% | residual activity [28]: 84% | residual activity [29]: 111%
